Among the data in patent US11332463B2, “Spiropiperidine allosteric modulators of nicotinic acetylcholine receptors” (Merck Sharp & Dohme Corp., priority 2018, dated 2022) are EC50 values, retold here.

The structures appear in SMILES notation. Some results are limits rather than exact numbers.

T1 sequence (P36544 23-502): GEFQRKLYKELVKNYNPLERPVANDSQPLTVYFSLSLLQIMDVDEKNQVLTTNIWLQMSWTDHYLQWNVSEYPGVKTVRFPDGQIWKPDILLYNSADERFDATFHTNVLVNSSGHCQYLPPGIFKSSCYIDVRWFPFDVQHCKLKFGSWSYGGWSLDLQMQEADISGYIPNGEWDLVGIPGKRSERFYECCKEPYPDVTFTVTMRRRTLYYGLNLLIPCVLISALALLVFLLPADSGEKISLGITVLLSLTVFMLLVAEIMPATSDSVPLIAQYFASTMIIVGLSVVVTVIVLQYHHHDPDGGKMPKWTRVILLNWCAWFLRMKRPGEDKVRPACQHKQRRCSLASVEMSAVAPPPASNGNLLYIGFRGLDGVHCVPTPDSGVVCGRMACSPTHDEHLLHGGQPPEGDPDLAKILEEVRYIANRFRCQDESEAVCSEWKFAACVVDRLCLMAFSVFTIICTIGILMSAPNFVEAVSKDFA

One test has as its target T1, human α7 nicotinic acetylcholine receptor (HEK cell line stably expressing human RIC-3 and human α7) (Homo sapiens, UniProt P36544).
T1 construct: host or cells: HEK cell line (PrecisION hnAChR α7/RIC-3)
Description: Automated patch-clamp electrophysiology functional assay (Assay A), IonFlux HT, whole-cell population patch. It counts as cell-based. To be noted: HEK cells expressing human α7/RIC-3; test compound with or without 40 μM acetylcholine; holding potential −60 mV; room temperature; read-out: α7 nAChR Potency. (The patch-clamp technique gives a direct electrical read-out from membranes.)
With `NS(=O)(=O)N1CCC2(CC1)C[C@H]2c1noc(-c2cncc(OCC(F)(F)F)c2)n1` [Example E60], the EC50 was 500 to 5000 nM.

Consider `Cc1ncc(C(F)(F)F)cc1-c1nc([C@@H]2CC23CCN(S(N)(=O)=O)CC3)no1` [Example E61], for which the EC50 fell in the range of 500 to 5000 nM.

For the molecule `CC(C)n1nccc1-c1nc([C@@H]2CC23CCN(S(N)(=O)=O)CC3)no1` [Example E62], the EC50 lay within 500 to 5000 nM.

Take `NS(=O)(=O)N1CCC2(CC1)C[C@H]2c1noc(-c2ccc(OCC(F)(F)F)nc2)n1` [Example E63]: the EC50 lay within 500 to 5000 nM.

`Cc1cnn(C2CC2)c1-c1nc([C@@H]2CC23CCN(S(N)(=O)=O)CC3)no1` [Example E64]: the EC50 lay in the range of 500 to 5000 nM.

Regarding `Cn1nc2c(c1-c1nc([C@@H]3CC34CCN(S(N)(=O)=O)CC4)no1)CCCC2` [Example E65], the EC50 is 100 to 500 nM.

In the case of `Cn1nc2c(c1-c1nc([C@@H]3C(F)(F)C34CCN(S(N)(=O)=O)CC4)no1)CCCC2` [Example E66], the EC50 lay in the range of 100 to 500 nM.

In the case of `NS(=O)(=O)N1CCC2(CC1)[C@H](c1noc(-c3ccccn3)n1)C2(F)F` [Example E67], the EC50 is 500 to 5000 nM.

For `NS(=O)(=O)N1CCC2(CC1)[C@H](c1noc(-c3conc3C(F)(F)F)n1)C2(F)F` [Example E68], the EC50 lay within 500 to 5000 nM.

`NS(=O)(=O)N1CCC2(CC1)C[C@H]2c1noc(-c2cccc3c2CCC3)n1` [Example E69]: the EC50 was under 100 nM.

`NS(=O)(=O)N1CCC2(CC1)C[C@H]2c1noc(-c2cccc(-n3nccc3C(F)(F)F)c2)n1` [Example E70]: the EC50 lay in the range of 500 to 5000 nM.

With `NS(=O)(=O)N1CCC2(CC1)C[C@H]2c1noc(-c2ccccc2Oc2ccccc2)n1` [Example E71], the EC50 was in the range of 100 to 500 nM.

With `NS(=O)(=O)N1CCC2(CC1)C[C@H]2c1noc(-c2ccc3c(c2)CCCC3)n1` [Example E72], the EC50 lay within 100 to 500 nM.

With `NS(=O)(=O)N1CCC2(CC1)C[C@H]2c1noc(-c2ccccc2-n2cccc2)n1` [Example E73], the EC50 was 500 to 5000 nM.

On to `NS(=O)(=O)N1CCC2(CC1)C[C@H]2c1noc(-c2cccc(-c3ccc(F)cc3)c2)n1` [Example E74], for which the EC50 lay in the range of 100 to 500 nM.

Turning to `N#CC1(c2ccccc2-c2nc([C@@H]3CC34CCN(S(N)(=O)=O)CC4)no2)CC1` [Example E75], the EC50 was 5000 to 50000 nM.

With `NS(=O)(=O)N1CCC2(CC1)C[C@H]2c1noc(-c2ccccc2-c2ncccn2)n1` [Example E76], the EC50 fell in the range of 500 to 5000 nM.

With `NS(=O)(=O)N1CCC2(CC1)C[C@H]2c1noc(-c2ccccc2-n2cccn2)n1` [Example E77], the EC50 is 500 to 5000 nM.

With `NS(=O)(=O)N1CCC2(CC1)C[C@H]2c1noc(-c2ncccc2OCC(F)(F)F)n1` [Example E78], the EC50 lay in the range of 500 to 5000 nM.

In the case of `NS(=O)(=O)N1CCC2(CC1)C[C@H]2c1nnc(-c2ccc(F)cc2C(F)(F)F)o1` [Example F1], the EC50 lay within 500 to 5000 nM.

For `NS(=O)(=O)N1CCC2(CC1)C[C@H]2c1nnc(-c2cccc(C(F)(F)F)c2)o1` [Example F2], the EC50 was in the range of 500 to 5000 nM.

Take `NS(=O)(=O)N1CCC2(CC1)C[C@H]2c1nnc(-c2cccc(OC(F)(F)F)c2)o1` [Example F3]: the EC50 is 500 to 5000 nM.

Regarding `NS(=O)(=O)N1CCC2(CC1)C[C@H]2c1nnc(-c2cc(F)ccc2F)s1` [Example F4], the EC50 lay in the range of 500 to 5000 nM.

For the molecule `Cc1ccc(F)cc1-c1nnc([C@@H]2CC23CCN(S(N)(=O)=O)CC3)o1` [Example F5], the EC50 was in the range of 100 to 500 nM.

Take `NS(=O)(=O)N1CCC2(CC1)C[C@H]2c1nnc(-c2ccccc2OCC(F)(F)F)o1` [Example F6]: the EC50 lay within 500 to 5000 nM.

In the case of `NS(=O)(=O)N1CCC2(CC1)C[C@H]2c1nnc(-c2ccccc2OCC(F)(F)F)s1` [Example F7], the EC50 was in the range of 100 to 500 nM.

In the case of `Cc1ccccc1-c1nnc([C@@H]2CC23CCN(S(N)(=O)=O)CC3)s1` [Example F8], the EC50 lay within 500 to 5000 nM.

Turning to `NS(=O)(=O)N1CCC2(CC1)C[C@H]2c1nnc(-c2ccc(F)cc2C(F)(F)F)s1` [Example F9], the EC50 lay in the range of 500 to 5000 nM.

The test is the same for the next values; noted with them: automated patch-clamp electrophysiology functional assay (Assay A); read-out: α7 nAChR EC50.
For the molecule `NS(=O)(=O)N1CCC2(CC1)C[C@H]2c1noc(-c2cncc(OCC(F)(F)F)c2)n1` [Example E60], the EC50 amounted to 2300 nM.

Take `Cc1ncc(C(F)(F)F)cc1-c1nc([C@@H]2CC23CCN(S(N)(=O)=O)CC3)no1` [Example E61]: the EC50 came out at 1500 nM.

`CC(C)n1nccc1-c1nc([C@@H]2CC23CCN(S(N)(=O)=O)CC3)no1` [Example E62]: the EC50 was found to be 1500 nM.

Take `Cc1cnn(C2CC2)c1-c1nc([C@@H]2CC23CCN(S(N)(=O)=O)CC3)no1` [Example E64]: the EC50 amounted to 520 nM.

`Cn1nc2c(c1-c1nc([C@@H]3CC34CCN(S(N)(=O)=O)CC4)no1)CCCC2` [Example E65]: the EC50 was 420 nM.

As to `Cn1nc2c(c1-c1nc([C@@H]3C(F)(F)C34CCN(S(N)(=O)=O)CC4)no1)CCCC2` [Example E66], the EC50 came out at 120 nM.

`NS(=O)(=O)N1CCC2(CC1)[C@H](c1noc(-c3ccccn3)n1)C2(F)F` [Example E67]: the EC50 came to 2100 nM.

For the molecule `NS(=O)(=O)N1CCC2(CC1)[C@H](c1noc(-c3conc3C(F)(F)F)n1)C2(F)F` [Example E68], the EC50 was 680 nM.

In the case of `NS(=O)(=O)N1CCC2(CC1)C[C@H]2c1noc(-c2cccc(-n3nccc3C(F)(F)F)c2)n1` [Example E70], the EC50 came out at 2300 nM.

For the molecule `NS(=O)(=O)N1CCC2(CC1)C[C@H]2c1noc(-c2ccccc2Oc2ccccc2)n1` [Example E71], the EC50 worked out at 360 nM.

With `NS(=O)(=O)N1CCC2(CC1)C[C@H]2c1noc(-c2ccc3c(c2)CCCC3)n1` [Example E72], the EC50 stood at 110 nM.

Consider `NS(=O)(=O)N1CCC2(CC1)C[C@H]2c1noc(-c2ccccc2-n2cccc2)n1` [Example E73], for which the EC50 was 640 nM.

In the case of `N#CC1(c2ccccc2-c2nc([C@@H]3CC34CCN(S(N)(=O)=O)CC4)no2)CC1` [Example E75], the EC50 turned out to be 6300 nM.

Take `NS(=O)(=O)N1CCC2(CC1)C[C@H]2c1noc(-c2ccccc2-c2ncccn2)n1` [Example E76]: the EC50 was 3200 nM.

With `NS(=O)(=O)N1CCC2(CC1)C[C@H]2c1noc(-c2ccccc2-n2cccn2)n1` [Example E77], the EC50 was determined as 850 nM.

As for `NS(=O)(=O)N1CCC2(CC1)C[C@H]2c1noc(-c2ncccc2OCC(F)(F)F)n1` [Example E78], the EC50 amounted to 1200 nM.

For `NS(=O)(=O)N1CCC2(CC1)C[C@H]2c1nnc(-c2ccc(F)cc2C(F)(F)F)o1` [Example F1], the EC50 was 1500 nM.

Take `NS(=O)(=O)N1CCC2(CC1)C[C@H]2c1nnc(-c2cccc(OC(F)(F)F)c2)o1` [Example F3]: the EC50 amounted to 700 nM.

On to `NS(=O)(=O)N1CCC2(CC1)C[C@H]2c1nnc(-c2cc(F)ccc2F)s1` [Example F4], for which the EC50 worked out at 1100 nM.

Take `Cc1ccc(F)cc1-c1nnc([C@@H]2CC23CCN(S(N)(=O)=O)CC3)o1` [Example F5]: the EC50 was 420 nM.

For `NS(=O)(=O)N1CCC2(CC1)C[C@H]2c1nnc(-c2ccccc2OCC(F)(F)F)o1` [Example F6], the EC50 amounted to 590 nM.

Take `NS(=O)(=O)N1CCC2(CC1)C[C@H]2c1nnc(-c2ccccc2OCC(F)(F)F)s1` [Example F7]: the EC50 was determined as 480 nM.

As for `Cc1ccccc1-c1nnc([C@@H]2CC23CCN(S(N)(=O)=O)CC3)s1` [Example F8], the EC50 amounted to 750 nM.

With `NS(=O)(=O)N1CCC2(CC1)C[C@H]2c1nnc(-c2ccc(F)cc2C(F)(F)F)s1` [Example F9], the EC50 was 750 nM.
